Assay results: patent US12398093B2, “Compounds and methods for treating inflammatory disorders” (Board of Supervisors of Louisiana State University and …, priority 2019, dated 2025)

Experiments:
[1] = test system: adult male Brown Norway rats; assay: Ovalbumin allergic asthma model, whole body plethysmography (ΔPenh) after methacholine challenge; assay type: in vivo; details: for Prevention of AHR (ΔPenh/PenH) in response to OVA: rats
Excerpt: A modification of the ovalbumin model of allergic asthma and whole body plethysmography protocol as described in Nau et al. (Am. J. Physiol. Lung Cell Mol. Physiol. 2015, 308(2): L191-L198; incorporated herein by reference) was used to determine ΔPenh, a measure of airways hyperresponsiveness (AHR), in response to methacholine challenge in adult male Brown Norway rats. Results, shown in FIGS. 2A-2G, represent PenH change measured in the ovalbumin allergic asthma assay in rats, with the exception of FIG. 2C, which was measured in mice, for nebulized inhaled drug. Statistics were performed using 2-way ANOVA with Tukey post hoc test for multiple comparisons.
Allergic asthma is defined as a chronic inflammatory disorder of the airways. This disease is characterized by airway inflammation, persistent airways AHR and intermittent, reversible airways obstruction.
Area under the curve of PenH values (PenH-AUC) in response to incremental doses of metacholine were calculated for each testing groups, naïve, OVA treated, and OVA+DRUG treated animals. A reduction in PenH-AUC values of more than 75% of the control values (OVA alone) was annotated as a strong efficacy. […] Additional to this information are provided the relative to R-DOI EC50 values (ratio) of tested compounds in 5-HT2AR heterologous cell-based calcium transient assay. […] FIG. 3 illustrates the non-correlative nature of the therapeutic efficacy of the phenylethylamines class of compounds against inflammatory-mediated allergen-induced AHR and the reported evidences of the dose necessary for psychoactive disturbances experienced with these compounds in humans or the potency and strength of these compounds to the 5-HT2AR in calcium transients assays.
Inhibition of ΔPenh as a function of 2C-iBu concentration was studied by nebulization nose-only administration of 2C-iBu to male adult Brown Norway rats as described above. Area under the curve for each treatment group at a given dose of 2C-iBu for ΔPenh is plotted on the Y-axis versus concentration of 2C-iBu on the X-axis.

5-HT1A (h) = molecular target: T1, 5-HT1A (h) (Homo sapiens, UniProt P08908); assay: Radioligand binding, agonist radioligand [3H]8-OH-DPAT
T1 construct: membrane preparations
T1 sequence (P08908 1-422): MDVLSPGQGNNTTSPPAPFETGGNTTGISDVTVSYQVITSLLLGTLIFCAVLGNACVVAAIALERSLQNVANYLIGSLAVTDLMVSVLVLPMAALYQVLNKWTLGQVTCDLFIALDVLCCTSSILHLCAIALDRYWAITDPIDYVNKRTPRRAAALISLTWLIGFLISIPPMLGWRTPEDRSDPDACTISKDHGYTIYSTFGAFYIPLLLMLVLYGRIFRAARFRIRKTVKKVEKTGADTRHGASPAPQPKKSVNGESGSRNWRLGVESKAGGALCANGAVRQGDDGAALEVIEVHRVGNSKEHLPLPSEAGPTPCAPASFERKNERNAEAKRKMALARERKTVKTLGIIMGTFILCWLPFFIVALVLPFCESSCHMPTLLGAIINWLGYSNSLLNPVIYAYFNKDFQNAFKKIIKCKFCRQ

5-HT1D = molecular target: T2, 5-HT1D (Rattus norvegicus, UniProt P28565); assay: Radioligand binding, agonist radioligand [3H]serotonin; parameters: species or system human
T2 construct: membrane preparations
T2 sequence (P28565 whole entry): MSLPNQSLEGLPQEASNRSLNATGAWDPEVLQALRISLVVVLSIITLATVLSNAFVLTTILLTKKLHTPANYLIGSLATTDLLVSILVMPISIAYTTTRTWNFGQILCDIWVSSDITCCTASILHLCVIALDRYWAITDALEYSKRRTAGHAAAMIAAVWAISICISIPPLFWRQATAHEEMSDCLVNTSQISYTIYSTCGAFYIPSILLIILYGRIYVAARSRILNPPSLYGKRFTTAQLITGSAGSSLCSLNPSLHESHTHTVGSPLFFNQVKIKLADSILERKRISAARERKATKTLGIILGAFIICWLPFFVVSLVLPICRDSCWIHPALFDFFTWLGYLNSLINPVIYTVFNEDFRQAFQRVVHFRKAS

5-HT6 (h) = molecular target: T3, 5-HT6 (h) (Homo sapiens, UniProt P50406); assay: Radioligand binding, agonist radioligand [3H]LSD
T3 construct: membrane preparations
T3 sequence (P50406 whole entry): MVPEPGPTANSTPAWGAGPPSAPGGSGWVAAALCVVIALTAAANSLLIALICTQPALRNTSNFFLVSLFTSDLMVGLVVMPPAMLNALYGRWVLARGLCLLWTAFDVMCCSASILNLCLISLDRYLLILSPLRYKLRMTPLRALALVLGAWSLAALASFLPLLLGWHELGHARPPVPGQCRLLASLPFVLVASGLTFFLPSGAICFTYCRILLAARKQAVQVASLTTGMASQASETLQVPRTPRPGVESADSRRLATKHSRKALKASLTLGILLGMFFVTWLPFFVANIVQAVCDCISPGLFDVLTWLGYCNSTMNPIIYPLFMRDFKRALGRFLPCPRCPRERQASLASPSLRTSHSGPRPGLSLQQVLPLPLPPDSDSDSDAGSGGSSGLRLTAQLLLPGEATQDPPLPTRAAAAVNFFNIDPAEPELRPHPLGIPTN

5-HT7 (h) = molecular target: T4, 5-HT7 (h) (Homo sapiens, UniProt P34969); assay: Radioligand binding, agonist radioligand [3H]LSD
T4 construct: membrane preparations
T4 sequence (P34969 whole entry): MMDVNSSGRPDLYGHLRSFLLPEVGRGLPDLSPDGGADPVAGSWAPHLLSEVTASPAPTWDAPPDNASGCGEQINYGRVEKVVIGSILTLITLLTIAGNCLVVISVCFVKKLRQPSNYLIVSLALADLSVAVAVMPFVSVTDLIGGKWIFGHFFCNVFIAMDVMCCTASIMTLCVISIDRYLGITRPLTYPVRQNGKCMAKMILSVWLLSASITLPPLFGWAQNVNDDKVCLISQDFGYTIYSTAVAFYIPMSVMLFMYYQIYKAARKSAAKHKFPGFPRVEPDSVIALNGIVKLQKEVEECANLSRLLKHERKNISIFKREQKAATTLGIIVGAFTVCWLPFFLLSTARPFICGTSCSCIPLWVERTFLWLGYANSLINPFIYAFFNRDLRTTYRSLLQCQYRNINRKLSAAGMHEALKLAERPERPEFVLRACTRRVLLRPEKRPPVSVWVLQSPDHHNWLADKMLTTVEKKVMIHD

[2] = log D at physiological pH; assay type: physicochemical; details: pH 7.4
Excerpt: This differential in the physico-chemical properties could be one of the drivers in the observed increased plasma protein binding capability of 2Ci-Bu in comparison to R-DOI and the moderate changes in the Caco-2 A-B/B-A permeability profiles.

5-HTB = 5-HTB (Rattus norvegicus, UniProt P28564); assay: Radioligand binding, antagonist radioligand [125I]CYP
Sequence of 5-HTB (P28564 whole entry): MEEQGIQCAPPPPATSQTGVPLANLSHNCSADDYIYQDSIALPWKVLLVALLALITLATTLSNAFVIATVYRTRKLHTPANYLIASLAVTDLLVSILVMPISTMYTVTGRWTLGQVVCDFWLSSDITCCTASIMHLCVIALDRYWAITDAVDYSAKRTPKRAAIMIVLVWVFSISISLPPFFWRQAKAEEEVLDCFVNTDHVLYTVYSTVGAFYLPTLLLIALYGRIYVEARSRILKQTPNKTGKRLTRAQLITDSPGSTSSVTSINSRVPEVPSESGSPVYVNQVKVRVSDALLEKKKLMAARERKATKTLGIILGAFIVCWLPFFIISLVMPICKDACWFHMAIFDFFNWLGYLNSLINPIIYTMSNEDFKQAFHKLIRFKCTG

5-HT2A (h) = 5-HT2A (h) (Homo sapiens, UniProt P28223); assay: Radioligand binding, agonist radioligand [125I](±)DOI
Sequence of 5-HT2A (h) (P28223 whole entry): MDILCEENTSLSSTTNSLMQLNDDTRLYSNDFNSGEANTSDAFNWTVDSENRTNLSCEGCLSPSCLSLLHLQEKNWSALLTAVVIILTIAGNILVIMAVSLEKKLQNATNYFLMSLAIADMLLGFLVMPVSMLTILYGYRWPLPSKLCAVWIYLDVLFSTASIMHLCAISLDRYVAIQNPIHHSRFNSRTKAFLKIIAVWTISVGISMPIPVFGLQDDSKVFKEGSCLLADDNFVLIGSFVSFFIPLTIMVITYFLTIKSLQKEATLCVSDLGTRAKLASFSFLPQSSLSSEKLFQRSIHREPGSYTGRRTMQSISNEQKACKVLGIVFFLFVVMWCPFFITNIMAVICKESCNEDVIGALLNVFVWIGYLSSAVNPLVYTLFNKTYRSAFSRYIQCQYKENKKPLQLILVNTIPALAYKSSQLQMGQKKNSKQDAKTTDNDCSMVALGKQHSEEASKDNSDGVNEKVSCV

5-HT2C (h) = molecular target: T5, 5-HT2C (h) (Homo sapiens, UniProt P28335); assay: as above
T5 sequence (P28335 33-458): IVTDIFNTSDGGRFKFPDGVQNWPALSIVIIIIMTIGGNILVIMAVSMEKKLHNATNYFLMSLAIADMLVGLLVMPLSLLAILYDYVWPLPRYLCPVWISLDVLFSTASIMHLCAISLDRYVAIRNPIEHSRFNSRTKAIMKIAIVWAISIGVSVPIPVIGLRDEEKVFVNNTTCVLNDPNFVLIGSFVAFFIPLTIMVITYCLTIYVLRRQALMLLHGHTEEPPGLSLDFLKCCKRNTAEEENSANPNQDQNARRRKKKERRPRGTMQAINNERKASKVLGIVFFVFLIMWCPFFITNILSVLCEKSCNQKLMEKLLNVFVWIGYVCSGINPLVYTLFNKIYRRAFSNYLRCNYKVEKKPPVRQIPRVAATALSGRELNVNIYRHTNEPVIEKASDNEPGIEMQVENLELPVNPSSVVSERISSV

COc1cc(CC(C)C)c(OC)cc1CCN [2C-iBu, 2,5-dimethoxy-4-isobutylphenethylamine]
ED50 ([1]; Rattus norvegicus, nebulization nose-only administration, rats (FIG. 4), read-out: ED50, inhibition of ΔPenh (AUC)): 2.7 µg/kg | Prevention of AHR (ΔPenh/PenH) in response to OVA ([1]; dose not printed (FIG. 2G)): did not result in a decrease in efficacy compared to (R)-DOI | Ki (5-HT1A (h)): 79.4 nM | Ki (5-HT1D): 63.1 nM | Ki (5-HT6 (h)): 1260 nM | Ki (5-HT7 (h)): 316 nM | logD [2]: 1.64 | Ki (5-HTB): 50.1 nM | Ki (5-HT2A (h)): 1.26 nM | Ki (5-HT2C (h)): 0.251 nM

COc1cc(C[C@@H](C)N)c(OC)cc1I [R-DOI]
Prevention of AHR (ΔPenh/PenH) in response to OVA ([1]; 1.0 mg/kg, nebulized inhaled drug): full efficacy at preventing AHR | logD [2]: 1.04 | Ki (5-HTB): 2510 nM | Ki (5-HT2C (h)): 0.631 nM
